Test results as given in publication PMC8811472, “Systematic In Vitro Evaluation of a Library of Approved and Pharmacologically Active Compounds for the Identification of Novel Candidate Drugs for KMT2A-Rearranged Leukemia” (Frontiers in Oncology, 2022).

How the values were obtained:
THP-1 cells = test: 72-hour resazurin-based cytotoxicity assay, THP-1; assay type: cell-based, human; conditions: Homo sapiens, THP-1, KMT2A-r t(9;11), infant AML
Experimental: (§1) All cell lines used in this study were mycoplasma-free and have been authenticated using STR profiling. Cells were cultured as previously described ([7], [8]). Characteristics of the leukemia cell lines used in this study are described in Supplementary Table 1 . Peripheral blood mononuclear cells from healthy donors were purchased from Australian Red Cross.
(§2) The cytotoxicity of drugs was assessed through resazurin-based assays and the inhibitory concentration resulting in 50% reduction of cell survival relative to control (IC50) was calculated as previously described ([7]). In synergy studies, cells were exposed to a dilution series of compounds, as single agents or in combination, in resazurin-based assays (72 hours) as described ([8]–[10]). The occurrence of synergy was determined with the Bliss Independence model as previously described ([8]–[10]). Bliss Prediction curves indicated the predicted percentage viability of the cells when exposed to the combination of compounds if both compounds work additively together. Synergy was visualised as the presence of a lower cell viability upon combination of two compounds compared to the viability predicted based on the presence of an additive effect of the compounds (i.e., the viability curve of the combination runs below the Bliss Prediction curve). The percentage of apoptotic cells was assessed by annexin V and 7-Aminoactinomycin D (7-AAD) (BD Biosciences, Australia) flow cytometry as previously described ([7]).

Jurkat cells = test: 72-hour resazurin-based cytotoxicity assay, Jurkat; parameters: species or system human; conditions: Homo sapiens, KMT2A-wt, childhood T-cell ALL
Experimental: as §1, §2

PER-485 cells [1] = test: 72-hour resazurin-based cytotoxicity assay, PER-485; assay type: cell-based, human; conditions: Homo sapiens, PER-485, KMT2A-r t(4;11), infant ALL derived
Experimental: as §1, §2

MRC-5 cells = test: 72-hour resazurin-based cytotoxicity assay, MRC-5; assay type: cell-based, human; conditions: Homo sapiens, MRC5, MRC-5, non-malignant, normal lung
Experimental: as §1, §2

SEMK2 cells = test: 72-hour resazurin-based cytotoxicity assay, SEMK2; parameters: species or system human; conditions: Homo sapiens, SEMK2, KMT2A-r t(4;11), pre-B cell childhood ALL
Experimental: as §1, §2

REH cells = test: 72-hour resazurin-based cytotoxicity assay, REH; parameters: species or system human; conditions: Homo sapiens, KMT2A-wt, pre-B cell ALL
Experimental: as §1, §2

RS4;11 cells = test: 72-hour resazurin-based cytotoxicity assay, RS4;11; parameters: species or system human; conditions: RS4;11, KMT2A-r t(4;11), pre-B cell ALL
Experimental: as §1, §2

MOLM-13 cells = test: 72-hour resazurin-based cytotoxicity assay, MOLM-13; assay type: cell-based, human; conditions: Homo sapiens, MOLM-13, KMT2A-r t(9;11), AML
Experimental: as §1, §2

CEM cells = test: 72-hour resazurin-based cytotoxicity assay, CEM; parameters: species or system human; conditions: Homo sapiens, CCRF-CEM, KMT2A-wt, childhood T-cell ALL
Experimental: as §1, §2

U937 cells = test: 72-hour resazurin-based cytotoxicity assay, U937; assay type: cell-based, human; conditions: Homo sapiens, U-937, U937, CALM-AF10, AML
Experimental: as §1
as §2, with “The percentage of apoptotic cells was assessed by annexin V and 7-Aminoactinomycin D (7-AAD) (BD Biosciences, Australia) flow cytometry as previously described ([7]).” left out

KOPN-8 cells = test: 72-hour resazurin-based cytotoxicity assay, KOPN-8; parameters: species or system human; conditions: Homo sapiens, KOPN-8, KMT2A-r t(11;19), infant pre-B cell ALL
Experimental: as §1
as §2, with “The percentage of apoptotic cells was assessed by annexin V and 7-Aminoactinomycin D (7-AAD) (BD Biosciences, Australia) flow cytometry as previously described ([7]).” left out

MCF-7 cells = test: 72-hour resazurin-based cytotoxicity assay, MCF-7; assay type: cell-based, human; conditions: Homo sapiens, MCF7, MCF-7, breast adenocarcinoma
Experimental: as §1
as §2, with “The percentage of apoptotic cells was assessed by annexin V and 7-Aminoactinomycin D (7-AAD) (BD Biosciences, Australia) flow cytometry as previously described ([7]).” left out

PER-490 cells = test: 72-hour resazurin-based cytotoxicity assay, PER-490; assay type: cell-based, human; conditions: Homo sapiens, PER-490, KMT2A-r t(4;11), infant ALL
Experimental: as §1
as §2, with “The percentage of apoptotic cells was assessed by annexin V and 7-Aminoactinomycin D (7-AAD) (BD Biosciences, Australia) flow cytometry as previously described ([7]).” left out

HEY cells = test: 72-hour resazurin-based cytotoxicity assay, HEY; assay type: cell-based, human; conditions: Homo sapiens, ovarian carcinoma
Experimental: as §1
as §2, with “The percentage of apoptotic cells was assessed by annexin V and 7-Aminoactinomycin D (7-AAD) (BD Biosciences, Australia) flow cytometry as previously described ([7]).” left out

MV4;11 cells = test: 72-hour resazurin-based cytotoxicity assay, MV4;11; assay type: cell-based, human; conditions: Homo sapiens, MV4;11, KMT2A-r t(4;11), childhood AML
Experimental: as §1
as §2, with “The percentage of apoptotic cells was assessed by annexin V and 7-Aminoactinomycin D (7-AAD) (BD Biosciences, Australia) flow cytometry as previously described ([7]).” left out

KELLY cells = test: 72-hour resazurin-based cytotoxicity assay, KELLY; assay type: cell-based, human; conditions: Homo sapiens, neuroblastoma
Experimental: as §1
as §2, with “The percentage of apoptotic cells was assessed by annexin V and 7-Aminoactinomycin D (7-AAD) (BD Biosciences, Australia) flow cytometry as previously described ([7]).” left out

PER-785 cells = test: 72-hour resazurin-based cytotoxicity assay, PER-785; assay type: cell-based, human; conditions: Homo sapiens, PER-785, KMT2A-r t(4;11), infant ALL
Experimental: as §1
as §2, with “The percentage of apoptotic cells was assessed by annexin V and 7-Aminoactinomycin D (7-AAD) (BD Biosciences, Australia) flow cytometry as previously described ([7]).” left out

H460 cells = test: 72-hour resazurin-based cytotoxicity assay, H460; assay type: cell-based, human; conditions: Homo sapiens, NCI-H460, H460, lung carcinoma
Experimental: as §1
as §2, with “The percentage of apoptotic cells was assessed by annexin V and 7-Aminoactinomycin D (7-AAD) (BD Biosciences, Australia) flow cytometry as previously described ([7]).” left out

PER-703 cells = test: 72-hour resazurin-based cytotoxicity assay, PER-703; assay type: cell-based, human; conditions: Homo sapiens, PER-703, KMT2A-r t(1;11), infant ALL derived
Experimental: as §1
as §2, with “The percentage of apoptotic cells was assessed by annexin V and 7-Aminoactinomycin D (7-AAD) (BD Biosciences, Australia) flow cytometry as previously described ([7]).” left out

[2] = system: peripheral blood mononuclear cells from healthy donors; test: 72-hour resazurin-based viability assay, PBMC from healthy donors; assay type: cell-based, human; conditions: Homo sapiens, PBMC, 72 h, 72 h resazurin
Experimental: as §1, §2

PER-485 cells [3] = test: Annexin V/7-AAD flow cytometry, PER-485; assay type: cell-based, human; conditions: KMT2A-r leukemia cells (PER-485)
Experimental: as §2

BE(2)C cells = test: 72-hour resazurin-based cytotoxicity assay, BE(2)C; assay type: cell-based, human; conditions: Homo sapiens, childhood neuroblastoma
Experimental: as §1
as §2, with “The percentage of apoptotic cells was assessed by annexin V and 7-Aminoactinomycin D (7-AAD) (BD Biosciences, Australia) flow cytometry as previously described ([7]).” left out

27/87 cells = test: 72-hour resazurin-based cytotoxicity assay, 27/87; assay type: cell-based, human; conditions: Homo sapiens, 27/87, endometrioid ovarian cancer
Experimental: as §1
as §2, with “The percentage of apoptotic cells was assessed by annexin V and 7-Aminoactinomycin D (7-AAD) (BD Biosciences, Australia) flow cytometry as previously described ([7]).” left out

[4] = system: KMT2A-r and CALM-AF10 translocated leukemia cell lines; test: Cytotoxicity in expanded cell line panel (range over sensitive lines); assay type: cell-based; conditions: Homo sapiens; 9 out of 11 KMT2A-r leukemia cell lines
Experimental: as §1
as §2, with “The percentage of apoptotic cells was assessed by annexin V and 7-Aminoactinomycin D (7-AAD) (BD Biosciences, Australia) flow cytometry as previously described ([7]).” left out

KP-MO-TS cells = test: 72-hour resazurin-based cytotoxicity assay, KP-MO-TS; assay type: cell-based, human; conditions: Homo sapiens, CALM-AF10, AML
Experimental: as §1
as §2, with “The percentage of apoptotic cells was assessed by annexin V and 7-Aminoactinomycin D (7-AAD) (BD Biosciences, Australia) flow cytometry as previously described ([7]).” left out

LNCaP cells = test: 72-hour resazurin-based cytotoxicity assay, LNCaP; assay type: cell-based, human; conditions: Homo sapiens, prostate carcinoma
Experimental: as §1
as §2, with “The percentage of apoptotic cells was assessed by annexin V and 7-Aminoactinomycin D (7-AAD) (BD Biosciences, Australia) flow cytometry as previously described ([7]).” left out

PER-826 cells = test: 72-hour resazurin-based cytotoxicity assay, PER-826; assay type: cell-based, human; conditions: Homo sapiens, PER-826, KMT2A-r complex t(11;19), infant ALL
Experimental: as §1
as §2, with “The percentage of apoptotic cells was assessed by annexin V and 7-Aminoactinomycin D (7-AAD) (BD Biosciences, Australia) flow cytometry as previously described ([7]).” left out

WI-38 cells = test: 72-hour resazurin-based cytotoxicity assay, WI-38; assay type: cell-based, human; conditions: Homo sapiens, WI-38, non-malignant, normal lung
Experimental: as §1
as §2, with “The percentage of apoptotic cells was assessed by annexin V and 7-Aminoactinomycin D (7-AAD) (BD Biosciences, Australia) flow cytometry as previously described ([7]).” left out

Question: Which results are given for `CN(C(=O)CN(CCO)CC(=O)N(C)C(C)(C)Cc1ccccc1)C(C)(C)Cc1ccccc1` [Oxethazaine, oxethazaine]?
Answer: IC50 (THP-1 cells): 15 µM; IC50 (Jurkat cells): 18.9 µM; IC50 (PER-485 cells [1]): 3.6 µM; IC50 (MRC-5 cells): > 20 µM; IC50 (SEMK2 cells): 8.9 µM; IC50 (REH cells): 4.9 µM; IC50 (RS4;11 cells; Homo sapiens, RS4-11, 72 h): 9 µM; IC50 (MOLM-13 cells): 3.8 µM; IC50 (CEM cells): 10.6 µM

Question: What does the source list for `Nc1nc(Cl)nc2c1ncn2[C@@H]1O[C@H](COP(=O)(O)OP(=O)(O)OP(=O)(O)O)[C@@H](O)[C@H]1O` [2-Cl-ATP, 2-chloroadenosine triphosphate]?
Answer: IC50 (U937 cells): 3.5 µM; IC50 (THP-1 cells): > 20 µM; IC50 (KOPN-8 cells): 13.4 µM; IC50 (Jurkat cells): > 20 µM; IC50 (MCF-7 cells): > 20 µM; IC50 (PER-490 cells): 4.5 µM; IC50 (PER-485 cells [1]): 2.5 µM; IC50 (HEY cells): > 20 µM; IC50 (MV4;11 cells): 2.7 µM; IC50 (KELLY cells): > 20 µM; IC50 (PER-785 cells): 3.5 µM; IC50 (MRC-5 cells): > 20 µM; IC50 (H460 cells): > 20 µM; IC50 (PER-703 cells): 4.3 µM; IC50 ([2]; Donor 1): 5.4 µM; IC50 ([2]; Donor 2): 4.8 µM; IC50 ([2]; Donor 3): 4.2 µM; IC50 (SEMK2 cells): 5.1 µM; induction of apoptosis (annexin V/7AAD) (PER-485 cells [3]): inducing apoptosis; IC50 (REH cells): > 20 µM; IC50 (BE(2)C cells): > 20 µM; IC50 (RS4;11 cells; Homo sapiens, RS4-11, 72 h): 5.8 µM; IC50 (RS4;11 cells): 5.9 µM; IC50 (27/87 cells): > 20 µM; IC50 [4]: 2.5 to 5.9 µM; IC50 (KP-MO-TS cells): 4.4 µM; IC50 (LNCaP cells): 14.9 µM; IC50 (PER-826 cells): 2.6 µM; IC50 (MOLM-13 cells): 5.6 µM; IC50 (WI-38 cells): > 20 µM; IC50 (CEM cells): 11.4 µM
